{
  "source": "ChEMBL document CHEMBL1128774",
  "about": "“Substrate specificity of farnesyl diphosphate synthase from Bacillus stearothermophilus” (Bioorg Med Chem Lett, 1995)",
  "key": {"[1]": {"tested_on": "Farnesyl diphosphate synthase (Sus scrofa)", "assay": "Compound was tested for apparent Km values of Farnesyl diphosphate synthase from Pig liver; Active"}, "[2]": {"tested_on": "Farnesyl diphosphate synthase (Geobacillus stearothermophilus)", "assay": "Compound was tested for apparent Km values of Farnesyl diphosphate synthase from Bacteria; Active"}},
  "note": "Activity calls are given as the source filed them. No cut-off for these calls is given here.",
  "data": [
    {"smiles": "C/C(=C\\COP(=O)(O)OP(=O)(O)O)CCCO", "values": [
      {"measurement": "Activity", "setting": "[1]", "result": "Active"},
      {"measurement": "Activity", "setting": "[2]", "result": "Active"}
    ]}
  ]
}
